# Assay results taken from PubChem BioAssay AID1918947 (Molecular Pharmacology Branch, DTP, NCI, 2023).
# Test system: A498 complex spheroid viability
# Assay: Anticancer human tumor A498 cell line growth inhibition;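 also: spheroids exposed to agents for seven days before readout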;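 as to viability, T/C: 100% = DMSO vehicle-treated spheroids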
# Settings: for IC50: curve of first compound; for viability, T/C: stronger effect = lower value
# Text: Multicellular complex tumor spheroid response to LSD1 Inhibitor Iadademstat in combination with a variety of drugs and investigational agents in selected tumor cell lines
# The current study was undertaken to assess response to LSD1 inhibitors in combination with standard-of-care drugs and investigational agents in solid tumor complex spheroid models as well as in the K-562 leukemia. Complex spheroids include a stromal component modeled by human endothelial cells (HUVEC) and fibroblasts modeled by human mesenchymal stem cells (MSCs). The concentration ranges selected for each drug and investigational agent were based upon clinically achievable concentrations if the clinical Cmax of the agent was known.
# Compounds. The drugs and investigational agents used in this study are listed on Table 1. All of the agents used, including staurosporine (NSC755774) and gemcitabine (NSC613327), were obtained from the Developmental Therapeutics Program, NCI. FDA-approved anticancer drugs are available from the NCI at http://dtp.nci.nih.gov/branches/dscb/oncology_drugset_explanation.html. Drugs and investigational agents were >95% pure by proton nuclear magnetic resonance (NMR) and liquid chromatography/mass spectrometry (LC/MS). Stock solutions were prepared at 400x in DMSO, stored at -70 degrees C, and diluted in fresh medium prior to their use. The final concentration of DMSO in cell culture wells never exceeded 0.25% (v/v). The FDA-approved anticancer drug set is available from the Developmental Therapeutics Program at https://dtp.cancer.gov/organization/dscb/obtaining/available_plates.htm. All drugs and investigational agents were tested over a range starting from a high concentration at or near the clinical Cmax and decreasing in half-log increments. If the clinical Cmax for an agent had not been determined, the highest concentration tested was 10 microM.
# Cell Lines. The patient-derived cancer cell (PDC) lines: 292921-168-R-J2-PDC, K24384-001-R-PDC, and 521955-158-R2-J5-PDC pancreatic carcinomas, 556581-035-R-J1 ovarian carcinoma, 324938-238-R-J1-PDC, 855422-203-R-J1-PDC and 883617-216-R-J1-PDC urothelial bladder carcinomas, 743489-274-T-PDC renal cell carcinoma, 138582-R-J1 Merkel cell tumor, K60290-347-R-J1 and K57222-313-R-J1-PDC glioblastomas, 653999-131-R-J2-PDC, LG0703-F948-PDC, and 349418-098-R-PDC non-small cell lung carcinomas, 885512-296-R-J2-PDC, 171881-019-R-J1-PDC breast carcinomas and 186277-243-T-J2-PDC and 233499-124-R-J2-PDC colon carcinomas were obtained from the NCI Patient-Derived Models Repository (PDMR, https://pdmr.cancer.gov). The established cell lines NCI/ADR-RES (RRID:CVCL_14520 and OVCAR-5 (RRID:CVCL_1628) ovarian carcinomas, 786-O (RRID:CVCL_1051) and A498 (RRID:CVCL_A498) renal cell carcinoma, NCI-H211 (ATCC, cat. CRL-5824; RRID:CVCL_1529), NCI-H196 (ATCC, cat. CRL-5823, RRID:CVCL_1509), SW 1271 (ATCC, cat. CRL-2177, RRID:CVCL_1716) and NCI-H1876 (ATCC, cat. CRL-5902, RRID:CVCL_1503) small cell lung carcinomas, MDA-MB-231 (RRID:CVCL_0062) and MDA-MB-468 (RRID:CVCL_0419)breast carcinomas (10-12). Pooled donor human umbilical vein endothelial cells (HUVEC, Lonza, cat. CC-2519) and human mesenchymal stem cells (hMSC, Lonza, cat. PT-2501) were purchased from Lonza (Walkersville, MD).
# Cell Culture. All cells were maintained in an incubator at 37 degrees C and 5% CO2 with 95% humidity. The PDC lines were cultured according to standard operating procedures established by the NCI PDMR (https://pdmr.cancer.gov). Briefly all PDCs were thawed and cultured in Matrigel-coated flasks prepared with a working solution of 1X Ham's F-12 nutrient mix, without supplementation (Invitrogen, Waltham, MA, cat. 11765054), 100 U/mL penicillin-streptomycin (Invitrogen, cat. 15140122), and 2.5% Matrigel (Corning Inc., Corning, NY, cat. 354248) for the first three passages. […]
# [1] = second compound 0.1 µM, first compound 0.00949 µM
# [2] = second compound 0.1 µM, first compound 0.03 µM
# [3] = second compound 0.1 µM, first compound 0.0949 µM
# [4] = second compound 0.1 µM, first compound 0.3 µM
# [5] = second compound 0.1 µM, first compound 0.949 µM
# [6] = second compound 0.1 µM, first compound 3 µM
# [7] = second compound 0.316 µM, first compound 0.00949 µM
# [8] = second compound 0.316 µM, first compound 0.03 µM
# [9] = second compound 0.316 µM, first compound 0.0949 µM
# [10] = second compound 0.316 µM, first compound 0.3 µM
# [11] = second compound 0.316 µM, first compound 0.949 µM
# [12] = second compound 0.316 µM, first compound 3 µM
# [13] = second compound 1 µM, first compound 0.00949 µM
# [14] = second compound 1 µM, first compound 0.03 µM
# [15] = second compound 1 µM, first compound 0.0949 µM
# [16] = second compound 1 µM, first compound 0.3 µM
# [17] = second compound 1 µM, first compound 0.949 µM
# [18] = second compound 1 µM, first compound 3 µM
# [19] = second compound 3.16 µM, first compound 0.00949 µM
# [20] = second compound 3.16 µM, first compound 0.03 µM
# [21] = second compound 3.16 µM, first compound 0.0949 µM
# [22] = second compound 3.16 µM, first compound 0.3 µM
# [23] = second compound 3.16 µM, first compound 0.949 µM
# [24] = second compound 3.16 µM, first compound 3 µM
# [25] = second compound 10 µM, first compound 0.00949 µM
# [26] = second compound 10 µM, first compound 0.03 µM
# [27] = second compound 10 µM, first compound 0.0949 µM
# [28] = second compound 10 µM, first compound 0.3 µM
# [29] = second compound 10 µM, first compound 0.949 µM
# [30] = second compound 10 µM, first compound 3 µM
smiles,measurement,setting,value
CC(C)CC(NC(=O)CNC(=O)c1cc(Cl)ccc1Cl)B1OC(=O)CC(CC(=O)O)(C(=O)O)O1 (stereo not given) + NC1CCC(NC2CC2c2ccccc2)CC1,IC50,second compound 0.1 µM,4.58 nM
same,IC50,second compound 0.316 µM,4.93 nM
same,IC50,second compound 1 µM,4.56 nM
same,IC50,second compound 3.16 µM,4.16 nM
same,IC50,second compound 10 µM,2.95 nM
same,"viability, T/C","second compound 0.1 µM, first compound 0.000316 µM",86.6%
same,"viability, T/C","second compound 0.1 µM, first compound 0.001 µM",91.6%
same,"viability, T/C","second compound 0.1 µM, first compound 0.00316 µM",64.4%
same,"viability, T/C","second compound 0.1 µM, first compound 0.01 µM",18.1%
same,"viability, T/C","second compound 0.1 µM, first compound 0.0316 µM",4.94%
same,"viability, T/C","second compound 0.1 µM, first compound 0.1 µM",3.27%
same,"viability, T/C","second compound 0.316 µM, first compound 0.000316 µM",94.3%
same,"viability, T/C","second compound 0.316 µM, first compound 0.001 µM",102%
same,"viability, T/C","second compound 0.316 µM, first compound 0.00316 µM",72%
same,"viability, T/C","second compound 0.316 µM, first compound 0.01 µM",14.6%
same,"viability, T/C","second compound 0.316 µM, first compound 0.0316 µM",5.43%
same,"viability, T/C","second compound 0.316 µM, first compound 0.1 µM",2.63%
same,"viability, T/C","second compound 1 µM, first compound 0.000316 µM",87.7%
same,"viability, T/C","second compound 1 µM, first compound 0.001 µM",96.5%
same,"viability, T/C","second compound 1 µM, first compound 0.00316 µM",65.5%
same,"viability, T/C","second compound 1 µM, first compound 0.01 µM",15.4%
same,"viability, T/C","second compound 1 µM, first compound 0.0316 µM",3.18%
same,"viability, T/C","second compound 1 µM, first compound 0.1 µM",1.44%
same,"viability, T/C","second compound 3.16 µM, first compound 0.000316 µM",84.3%
same,"viability, T/C","second compound 3.16 µM, first compound 0.001 µM",91.2%
same,"viability, T/C","second compound 3.16 µM, first compound 0.00316 µM",62.4%
same,"viability, T/C","second compound 3.16 µM, first compound 0.01 µM",9.48%
same,"viability, T/C","second compound 3.16 µM, first compound 0.0316 µM",2.6%
same,"viability, T/C","second compound 3.16 µM, first compound 0.1 µM",0.83%
same,"viability, T/C","second compound 10 µM, first compound 0.000316 µM",74.9%
same,"viability, T/C","second compound 10 µM, first compound 0.001 µM",83.3%
same,"viability, T/C","second compound 10 µM, first compound 0.00316 µM",47.5%
same,"viability, T/C","second compound 10 µM, first compound 0.01 µM",7.21%
same,"viability, T/C","second compound 10 µM, first compound 0.0316 µM",1.59%
same,"viability, T/C","second compound 10 µM, first compound 0.1 µM",0.69%
O=C(C=Cc1cccc(S(=O)(=O)Nc2ccccc2)c1)NO + NC1CCC(NC2CC2c2ccccc2)CC1,IC50,second compound 0.1 µM,266 nM
same,IC50,second compound 0.316 µM,253 nM
same,IC50,second compound 1 µM,250 nM
same,IC50,second compound 3.16 µM,168 nM
same,IC50,second compound 10 µM,131 nM
same,"viability, T/C",[1],81.5%
same,"viability, T/C",[2],82.3%
same,"viability, T/C",[3],67.1%
same,"viability, T/C",[4],43.2%
same,"viability, T/C",[5],33.6%
same,"viability, T/C",[6],12.9%
same,"viability, T/C",[7],88%
same,"viability, T/C",[8],87.1%
same,"viability, T/C",[9],69.3%
same,"viability, T/C",[10],41.2%
same,"viability, T/C",[11],33.1%
same,"viability, T/C",[12],11.7%
same,"viability, T/C",[13],79.1%
same,"viability, T/C",[14],78%
same,"viability, T/C",[15],63.1%
same,"viability, T/C",[16],46.8%
same,"viability, T/C",[17],28.1%
same,"viability, T/C",[18],10.4%
same,"viability, T/C",[19],79.9%
same,"viability, T/C",[20],72.7%
same,"viability, T/C",[21],60.4%
same,"viability, T/C",[22],38.8%
same,"viability, T/C",[23],23.2%
same,"viability, T/C",[24],8.14%
same,"viability, T/C",[25],70.4%
same,"viability, T/C",[26],64.6%
same,"viability, T/C",[27],56.5%
same,"viability, T/C",[28],36%
same,"viability, T/C",[29],22.9%
same,"viability, T/C",[30],7.67%
CCN(c1cc(-c2ccc(CN3CCOCC3)cc2)cc(C(=O)NCc2c(C)cc(C)[nH]c2=O)c1C)C1CCOCC1 + NC1CCC(NC2CC2c2ccccc2)CC1,IC50,second compound 0.1 µM,> 3000 nM
same,IC50,second compound 0.316 µM,> 3000 nM
same,IC50,second compound 1 µM,> 3000 nM
same,IC50,second compound 3.16 µM,> 3000 nM
same,IC50,second compound 10 µM,> 3000 nM
same,"viability, T/C",[1],85.8%
same,"viability, T/C",[2],90.7%
same,"viability, T/C",[3],92.1%
same,"viability, T/C",[4],91.4%
same,"viability, T/C",[5],94.4%
same,"viability, T/C",[6],92.9%
same,"viability, T/C",[7],93.2%
same,"viability, T/C",[8],101%
same,"viability, T/C",[9],100%
same,"viability, T/C",[10],98.9%
same,"viability, T/C",[11],92.4%
same,"viability, T/C",[12],92.9%
same,"viability, T/C",[13],91.7%
same,"viability, T/C",[14],97%
same,"viability, T/C",[15],97.3%
same,"viability, T/C",[16],90.1%
same,"viability, T/C",[17],86.8%
same,"viability, T/C",[18],87.2%
same,"viability, T/C",[19],87.3%
same,"viability, T/C",[20],95%
same,"viability, T/C",[21],90.6%
same,"viability, T/C",[22],89.1%
same,"viability, T/C",[23],85.8%
same,"viability, T/C",[24],78.2%
same,"viability, T/C",[25],80.4%
same,"viability, T/C",[26],87.5%
same,"viability, T/C",[27],88.4%
same,"viability, T/C",[28],82.1%
same,"viability, T/C",[29],82.7%
same,"viability, T/C",[30],72.9%
